Test results: patent publication US10669268B2, “Bicyclic derivatives” (Hoffmann-La Roche Inc., priority 2012, dated 2020)

Target: ATX (human His-tagged) (Homo sapiens (Human), UniProt Q13822)
Assay: Human ATX enzyme inhibition assay (fluorescence quenching, MR121 substrate)
Assay type: biochemical
Conditions: 30 nM ATX, 1 μM MR121 substrate, 30° C., pH 8.0
Experimental: Human ATX Enzyme Inhibition Assay
Assay working solutions were made as follows:
Assay buffer (50 mM Tris-HCl, 140 mM NaCl, 5 mM KCl, 1 mM CaCl2, 1 mM MgCl2, 0.01% Triton-X-100, pH 8.0;
MR121 substrate solution: MR121 substrate stock solution (800 μM MR121 substrate in DMSO), diluted to 2-5× final concentration in assay buffer.
10 μL of MR121 substrate solution was added (1 μM final concentration), mixed 30 times and then incubated for 15 minutes at 30° C.

IC50	SMILES
25 nM	O=C(c1ccc2[nH]nnc2c1)N1C[C@H]2CN(C(=O)C3CCN(c4ccc(Cl)cc4)CC3)C[C@@H]2C1 [Example 19.23, [(3aR,6aR)-5-[1-(4-chlorophenyl)piperidine-4-carbonyl]-1,3,3a,4,6,6a-hexahydropyrrolo[3,4-c]pyrrol-2-yl]-(1H-benzotriazol-5-yl)methanone]
28 nM	O=C(CCc1ccc(-c2ccncc2)cc1)N1C[C@@H]2CN(C(=O)c3ccc4[nH]nnc4c3)C[C@H]2C1 [Example 17.11, 1-[(3aR,6aR)-5-(1H-benzotriazole-5-carbonyl)-hexahydro-pyrrolo[3,4-c]pyrrol-2-yl]-3-(4-pyridin-4-yl-phenyl)-propan-1-one]
2 nM	COc1cc(CCC(=O)N2C[C@@H]3CN(C(=O)c4ccc5[nH]nnc5c4)C[C@H]3C2)cc(OC(F)(F)F)c1 [Example 17.20, 1-[(3aR,6aR)-5-(1H-benzotriazole-5-carbonyl)-1,3,3a,4,6,6a-hexahydropyrrolo[3,4-c]pyrrol-2-yl]-3-[3-methoxy-5-(trifluoromethoxy)phenyl]propan-1-one]
3 nM	O=C(/C=C/c1ccc(OC(F)F)cc1)N1C[C@@H]2CN(C(=O)c3ccc4[nH]nnc4c3)C[C@H]2C1 [Example 15.36, (E)-1-((3aR,6aR)-5-(1H-benzo[d][1,2,3]triazole-5-carbonyl)hexahydro-pyrrolo[3,4-c]pyrrol-2(1H)-yl)-3-(4-(difluoromethoxy)phenyl)-prop-2-en-1-one]

The remaining lines, values behind:

SMILES	IC50
Cc1cc(OC(F)(F)F)ccc1/C=C/C(=O)N1CC[C@@H]2CN(C(=O)c3ccc4[nH]nnc4c3)C[C@@H]2CC1 [Example 1.18, (E)-1-((3aR,8aS)-2-(1H-benzo[d][1,2,3]triazole-5-carbonyl)octahydropyrrolo[3,4-d]azepin-6(7H)-yl)-3-(2-methyl-4-(trifluoromethoxy)phenyl)prop-2-en-1-one]	10 nM
O=C(OCc1cc(Cl)cc(Cl)c1)N1C[C@@H]2CN(C(=O)c3ccc4[nH]cnc4c3)C[C@@H]2C1 [Example 1.08, (3aR,6aS)-3,5-dichlorobenzyl 5-(1H-benzo[d]imidazole-5-carbonyl)hexahydropyrrolo[3,4-c]pyrrole-2(1H)-carboxylate]	503 nM
O=C(OCc1cc(Cl)cc(Cl)c1)N1C[C@H]2CCN(C(=O)c3ccc4[nH]nnc4c3)C[C@@H]2C1 (relative stereo) [Example 4.10, trans-3,5-dichlorobenzyl 5-(1H-benzo[d][1,2,3]triazole-5-carbonyl)hexahydro-1H-pyrrolo[3,4-c]pyridine-2(3H)-carboxylate]	4 nM
O=C(OCC1C2CCCCC21)N1C[C@@H]2CN(C(=O)c3ccc4[nH]nnc4c3)C[C@@H]2C1 (stereo partly drawn) [Example 4.13, (3aS,6aR)-5-(1H-benzotriazole-5-carbonyl)-hexahydro-pyrrolo[3,4-c]pyrrole-2-carboxylic acid bicyclo[4.1.0]hept-7-ylmethyl ester]	2910 nM
O=C(OCc1ccc(OC(F)(F)F)cc1)N1C[C@@H]2CN(C(=O)c3ccc4[nH]nnc4c3F)C[C@H]2C1 [Example 1.52, (3aS,6aS)-5-(4-fluoro-1H-benzotriazole-5-carbonyl)-hexahydro-pyrrolo[3,4-c]pyrrole-2-carboxylic acid 4-trifluoromethoxy-benzyl ester]	16 nM
Cc1cc(COC(=O)N2C[C@@H]3CN(C(=O)[C@@H]4CCc5[nH]nnc5C4)C[C@H]3C2)c(C(C)C)cc1C#N [Example 4.47, (3aS,6aS)-5-((R)-4,5,6,7-tetrahydro-1H-benzotriazole-5-carbonyl)-hexahydro-pyrrolo[3,4-c]pyrrole-2-carboxylic acid 4-cyano-2-isopropyl-5-methyl-benzyl ester]	4 nM
O=C(CCc1ccc(OC(F)(F)F)cc1)N1C[C@@H]2CN(C(=O)c3ccc4[nH]nnc4c3F)C[C@H]2C1 [Example 1.59, 1-[(3aR,6aR)-5-(4-fluoro-1H-benzotriazole-5-carbonyl)-hexahydro-pyrrolo[3,4-c]pyrrol-2-yl]-3-(4-trifluoromethoxy-phenyl)-propan-1-one]	6 nM
